Data published in patent publication US6737383B1, “Herbicidal oxadiazolidines” (priority 1999, dated 2004).

Assays:
[1] = system: wild oat; assay: Test B pre/postemergence wild oat; type: in vivo, Avena fatua; conditions: for Wild oats plant response rating (0 to 10 scale): 0 is no effect
Summary of the method: (§1)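 Response is a visual 0-to-10 score relative to untreated plants, where 0 means no effect and 10 means complete control, taken twelve to sixteen days after application. Treatments went onto soil at planting and onto foliage of 1- to 4-leaf plants, using a surfactant-containing non-phytotoxic solvent.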

[2] = system: winter wheat; assay: Test E winter wheat; type: in vivo, Triticum aestivum; conditions: Postemergence; for Plant response rating, Wheat (winter): 0 to 100 scale; for Wheat (winter) plant response rating: Rate 250 g/ha, 0 to 100 scale where 0 is no effect and 100 is complete control
Summary of the method: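 Compounds formulated in non-phytotoxic solvent mixture with surfactant; for postemergence, sprayed on plants at 1- to 4-leaf stage grown in 60:40 sandy loam/greenhouse potting mix. Kept in greenhouse ~21 to 28 days, then visually rated against untreated controls.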

[3] = system: green foxtail; assay: Test E green foxtail; type: in vivo, Setaria viridis; conditions: Preemergence; for Green foxtail plant response rating (0 to 100 scale): Rate 250 g/ha
[4] = system: Italian ryegrass; assay: Test E Italian ryegrass; type: in vivo, Lolium multiflorum; conditions: Preemergence; for I. Ryegrass plant response rating (0 to 100 scale): Rate 250 g/ha
[5] = system: bamyardgrass; assay: Test B flood test barnyardgrass; type: in vivo, Echinochloa crus-galli; conditions: for Plant response rating, Barnyardgrass: Postemergence (flood test)
Summary of the method: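 Flood test on plants grown to the 2-leaf stage; treated plants kept in greenhouse twelve to sixteen days, then visually rated against controls on a 0 (no effect) to 10 (complete control) scale.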

[6] = system: wild oat; assay: Test E wild oat; type: in vivo, Avena fatua; conditions: Preemergence; for Wild oat plant response rating (0 to 100 scale): Rate 250 g/ha
[7] = system: winter wheat; assay: Test E winter wheat; type: in vivo, Triticum aestivum; conditions: Preemergence; for Wheat (winter) plant response rating (0 to 100 scale): Rate 250 g/ha
[8] = system: blackgrass; assay: Test E blackgrass; type: in vivo, Alopecurus myosuroides; conditions: Preemergence; for Blackgrass plant response rating (0 to 100 scale): Rate 250 g/ha
[9] = system: winter barley; assay: Test E winter barley; type: in vivo, Hordeum vulgare; conditions: Preemergence; for Barley (winter) plant response rating (0 to 100 scale): Rate 250 g/ha
[10] = system: soybean; assay: Test B pre/postemergence soybean; type: in vivo, Glycine max; conditions: for Soybean plant response rating (0 to 10 scale): 0 is no effect
Summary of the method: as §1

[11] = system: bedstraw; assay: Test B pre/postemergence bedstraw; type: in vivo, Galium aparine; conditions: for Bedstraw plant response rating (0 to 10 scale): 0 is no effect
Summary of the method: as §1

[12] = Preemergence, Rate 62 g/ha, scale of 0 to 10 where 0 is no effect and 10 is complete control
[13] = Preemergence, Rate 125 g/ha, 10 is complete control
[14] = Preemergence, Rate 250 g/ha, scale 0 to 10, 0 is no effect, 10 is complete control
[15] = Preemergence, Rate 500 g/ha, scale 0 to 10 (0 no effect, 10 complete control)
[16] = Rate 250 g/ha, Postemergence, scale 0 to 10, 0 is no effect, 10 is complete control
[17] = Rate 500 g/ha, Postemergence, scale 0 to 10
[18] = Rate 62 g/ha, 0 to 100 scale, 0 no effect, 100 complete control
[19] = Rate 125 g/ha, 0 to 100 scale (0 no effect, 100 complete control)
[20] = Rate 500 g/ha, 0 to 100 scale where 0 is no effect and 100 is complete control
[21] = Postemergence (flood test species), Rate 125 g/ha, scale of 0 to 10 where 0 is no effect and 10 is complete control
[22] = Rate 250 g/ha, scale 0 to 10, 0 is no effect, 10 is complete control
[23] = Rate 500 g/ha, listed under Postemergence (flood test species), scale 0 to 10
[24] = Postemergence, Rate 125 g/ha, scale of 0 to 10 where 0 is no effect and 10 is complete control
[25] = Rate 62 g/ha, Postemergence, scale of 0 to 10 where 0 is no effect and 10 is complete control
[26] = Postemergence, Rate 1000 g/ha, scale 0 to 10 (0 no effect, 10 complete control)
[27] = Rate 1000 g/ha, Preemergence, scale 0 to 10 (0 no effect, 10 complete control)
[28] = Rate 500 g/ha, 0 is no effect, 100 is complete control
[29] = Rate 1000 g/ha, 0 to 100 scale where 0 is no effect and 100 is complete control
[30] = Preemergence, Rate 250 g/ha, scale of 0 to 10 where 0 is no effect and 10 is complete control
[31] = Preemergence, Rate 500 g/ha, scale of 0 to 10 where 0 is no effect and 10 is complete control
[32] = Rate 125 g/ha, Postemergence, scale 0 to 10
[33] = Rate 125 g/ha, Preemergence, scale of 0 to 10 where 0 is no effect and 10 is complete control
[34] = Rate 500 g/ha, Postemergence, scale 0 to 10, 0 no effect, 10 complete control

Cc1nsc(C)c1-n1c(=O)on(C(=O)N(c2ccc(F)cc2F)C(C)C)c1=O [Compound 158]
Wild oats plant response rating [1, 12]: 0 | Wild oats plant response rating (0 to 10 scale) [1, 13]: 0 | Wild oats plant response rating [1, 14]: 0 | Wild oats plant response rating [1, 15]: 2 | Plant response rating, Wild oats [1, 16]: 0 | Wild oats plant response rating [1, 17]: 0 | Plant response rating, Wheat (winter) ([2]; Rate 62 g/ha): 10 | Plant response rating, Wheat (winter) ([2]; Rate 125 g/ha): 15 | Plant response rating, Wheat (winter) ([2]; Rate 500 g/ha, 0 no effect, 100 complete control): 30 | Wheat (winter) plant response rating [2]: 40 | Plant response rating, Green foxtail [3, 18]: 0 | Plant response rating, Green foxtail [3, 19]: 10 | Green foxtail plant response rating (0 to 100 scale) [3]: 20 | Plant response rating, Green foxtail [3, 20]: 50 | Plant response rating, I. Ryegrass [4, 18]: 10 | Plant response rating, I. Ryegrass [4, 19]: 20 | I. Ryegrass plant response rating (0 to 100 scale) [4]: 50 | Plant response rating, I. Ryegrass [4, 20]: 50 | Barnyardgrass plant response rating [5, 21]: 0 | Barnyardgrass plant response rating ([5]; Rate 62 g/ha, Postemergence section, flood test species, scale of 0 to 10 where 0 is no effect and 10 is complete control): 0 | Plant response rating, Barnyardgrass [5, 22]: 0 | Barnyardgrass plant response rating [5, 23]: 0 | Plant response rating, Wild oat [6, 18]: 50 | Plant response rating, Wild oat [6, 19]: 50 | Wild oat plant response rating (0 to 100 scale) [6]: 50 | Plant response rating, Wild oat [6, 20]: 60 | Plant response rating, Wheat (winter) [7, 18]: 0 | Plant response rating, Wheat (winter) [7, 19]: 10 | Wheat (winter) plant response rating (0 to 100 scale) [7]: 30 | Plant response rating, Blackgrass [8, 18]: 10 | Plant response rating, Blackgrass [8, 19]: 20 | Blackgrass plant response rating (0 to 100 scale) [8]: 50 | Plant response rating, Blackgrass [8, 20]: 50 | Plant response rating, Barley (winter) [9, 18]: 10 | Plant response rating, Barley (winter) [9, 19]: 20 | Barley (winter) plant response rating (0 to 100 scale) [9]: 30 | Plant response rating, Barley (winter) [9, 20]: 30 | Soybean plant response rating [10, 24]: 3 | Soybean plant response rating [10, 12]: 0 | Soybean plant response rating (0 to 10 scale) [10, 13]: 0 | Soybean plant response rating [10, 14]: 0 | Soybean plant response rating [10, 15]: 0 | Soybean plant response rating [10, 25]: 3 | Plant response rating, Soybean [10, 16]: 4 | Soybean plant response rating [10, 17]: 5 | Bedstraw plant response rating [11, 24]: 0 | Bedstraw plant response rating [11, 12]: 0 | Bedstraw plant response rating (0 to 10 scale) [11, 13]: 0 | Bedstraw plant response rating [11, 14]: 0 | Bedstraw plant response rating [11, 15]: 0 | Bedstraw plant response rating [11, 25]: 0 | Plant response rating, Bedstraw [11, 16]: 0

Cc1ccccc1-n1c(=O)on(C(=O)N(c2c(F)cccc2F)C(C)C)c1=O [Compound 176]
Wild oats plant response rating [1, 26]: 4 | Wild oats plant response rating (0 to 10 scale) [1, 13]: 0 | Wild oats plant response rating [1, 14]: 3 | Wild oats plant response rating [1, 15]: 5 | Plant response rating, Wild oats [1, 16]: 0 | Wild oats plant response rating [1, 17]: 0 | Plant response rating, Wild oats [1, 27]: 5 | Plant response rating, Wheat (winter) ([2]; Rate 1000 g/ha, 0 is no effect and 100 is complete control): 40 | Plant response rating, Wheat (winter) [2, 28]: 50 | Green foxtail plant response rating (0 to 100 scale) [3]: 50 | Plant response rating, Green foxtail [3, 20]: 70 | Plant response rating, Green foxtail [3, 29]: 100 | I. Ryegrass plant response rating (0 to 100 scale) [4]: 50 | Plant response rating, I. Ryegrass [4, 20]: 60 | Plant response rating, I. Ryegrass [4, 29]: 98 | Barnyardgrass plant response rating [5, 21]: 0 | Barnyardgrass plant response rating [5, 26]: 0 | Plant response rating, Barnyardgrass [5, 22]: 0 | Barnyardgrass plant response rating [5, 23]: 0 | Wild oat plant response rating (0 to 100 scale) [6]: 30 | Plant response rating, Wild oat [6, 20]: 50 | Plant response rating, Wild oat [6, 29]: 50 | Wheat (winter) plant response rating (0 to 100 scale) [7]: 20 | Plant response rating, Wheat (winter) [7, 20]: 30 | Plant response rating, Wheat (winter) [7, 29]: 50 | Blackgrass plant response rating (0 to 100 scale) [8]: 40 | Plant response rating, Blackgrass [8, 20]: 50 | Plant response rating, Blackgrass [8, 29]: 75 | Barley (winter) plant response rating (0 to 100 scale) [9]: 30 | Plant response rating, Barley (winter) [9, 20]: 40 | Plant response rating, Barley (winter) [9, 29]: 50 | Soybean plant response rating [10, 24]: 2 | Soybean plant response rating [10, 26]: 4 | Soybean plant response rating (0 to 10 scale) [10, 13]: 0 | Soybean plant response rating [10, 14]: 0 | Soybean plant response rating [10, 15]: 0 | Plant response rating, Soybean [10, 16]: 2 | Soybean plant response rating [10, 17]: 4 | Plant response rating, Soybean [10, 27]: 2 | Bedstraw plant response rating [11, 24]: 0 | Bedstraw plant response rating [11, 26]: 9 | Bedstraw plant response rating (0 to 10 scale) [11, 13]: 0 | Bedstraw plant response rating [11, 14]: 0 | Bedstraw plant response rating [11, 15]: 0 | Plant response rating, Bedstraw [11, 16]: 2 | Bedstraw plant response rating [11, 17]: 8 | Plant response rating, Bedstraw [11, 27]: 6

CC(C)N(C(=O)n1oc(=O)n(CCC2OCCO2)c1=O)c1ccc(F)cc1 [Compound 219]
Wild oats plant response rating [1, 12]: 2 | Wild oats plant response rating [1, 30]: 8 | Plant response rating, Wild oats [1, 31]: 9 | Wild oats plant response rating [1, 25]: 1 | Wild oats plant response rating [1, 32]: 3 | Wild oats plant response rating [1, 33]: 5 | Plant response rating (0 to 10; 0 is no effect, 10 is complete control), Wild oats ([1]; Rate 250 g/ha, Postemergence): 4 | Wild oats plant response rating [1, 34]: 6 | Plant response rating, Wheat (winter) ([2]; Rate 125 g/ha, 0 is no effect, 100 is complete control): 20 | Wheat (winter) plant response rating [2]: 50 | Plant response rating, Wheat (winter) [2, 28]: 60 | Plant response rating, Green foxtail [3, 19]: 65 | Green foxtail plant response rating (0 to 100 scale) [3]: 60 | Plant response rating, Green foxtail [3, 20]: 70 | Plant response rating, I. Ryegrass [4, 19]: 30 | I. Ryegrass plant response rating (0 to 100 scale) [4]: 55 | Plant response rating, I. Ryegrass [4, 20]: 70 | Barnyardgrass plant response rating ([5]; Rate 62 g/ha, headed Pre-emergence (flood test species), scale 0 to 10 (0 no effect, 10 complete control)): 0 | Barnyardgrass plant response rating ([5]; Rate 125 g/ha, Pre-emergence, flood test species, scale 0 to 10 where 0 is no effect and 10 is complete control): 0 | Barnyardgrass plant response rating ([5]; Rate 250 g/ha, Pre-emergence, flood-test species, scale 0 to 10, 0 is no effect, 10 is complete control): 8 | Barnyardgrass plant response rating ([5]; Rate 500 g/ha, Pre-emergence, flood test species, scale 0 to 10 (0 no effect, 10 complete control)): 9 | Plant response rating, Wild oat [6, 19]: 30 | Wild oat plant response rating (0 to 100 scale) [6]: 50 | Plant response rating, Wild oat [6, 20]: 60 | Plant response rating, Wheat (winter) [7, 19]: 35 | Wheat (winter) plant response rating (0 to 100 scale) [7]: 60 | Plant response rating, Wheat (winter) [7, 20]: 60 | Plant response rating, Blackgrass [8, 19]: 0 | Blackgrass plant response rating (0 to 100 scale) [8]: 20 | Plant response rating, Blackgrass [8, 20]: 70 | Plant response rating, Barley (winter) [9, 19]: 20 | Barley (winter) plant response rating (0 to 100 scale) [9]: 30 | Plant response rating, Barley (winter) [9, 20]: 70 | Soybean plant response rating [10, 12]: 0 | Soybean plant response rating [10, 30]: 0 | Plant response rating, Soybean [10, 31]: 0 | Soybean plant response rating [10, 25]: 5 | Soybean plant response rating [10, 32]: 5 | Soybean plant response rating [10, 33]: 0 | Plant response rating (0 to 10; 0 is no effect, 10 is complete control), Soybean ([10]; Rate 250 g/ha, Postemergence): 7 | Soybean plant response rating [10, 34]: 7 | Bedstraw plant response rating [11, 12]: 1 | Bedstraw plant response rating [11, 30]: 8 | Plant response rating, Bedstraw [11, 31]: 9 | Bedstraw plant response rating [11, 25]: 6 | Bedstraw plant response rating [11, 32]: 6 | Bedstraw plant response rating [11, 33]: 5 | Plant response rating (0 to 10; 0 is no effect, 10 is complete control), Bedstraw ([11]; Rate 250 g/ha, Postemergence): 8 | Bedstraw plant response rating [11, 34]: 8
